In brackets after ≈: the same amount, converted by molar mass. Read-outs that look alike come from different tables or passages of the source.
How the values were obtained:
[1] = in vivo; cited from earlier work
P. aeruginosa ATCC 15442 = test: NCCLS broth microdilution MIC and MBC (Example 10); format: cell-based, Pseudomonas aeruginosa; details: Example 10; % as g/100 ml or ml/100 ml
Protocol: (§2) Strains of E. coli (ATCC 11229), D. aeruginosa (ATCC 15442), S. aureus (ATCC 25923), S. epidermidis (ATCC 12228), S. pyogenes (ATCC 19615), C. albicans (ATCC 10231), and T. rubrum (ATCC 28188) were used as “challenge microorganisms” in this study. Strains were removed from frozen stock and subcultured twice on blood agar to ensure that the strains had optimal growth and metabolic status before testing.
(§3) Hibiclens (industry comparator) and ciprofloxacin were added to the bacterial panel. Amphotericin B, fluconazole, and Hibiclens were added as comparative agents in the fungal panels.
(§4) For testing purposes, AMC, AMC components, and Hibiclens were diluted to 50% of the working solution to cover the proposed AMC use dilution of 20%.
(§5) Microtiter panels were created on the day of MIC testing. A 50 μl aliquot of Mueller-Hinton broth (for bacterial strains) or RPMI 1640 (for fungal strains) was delivered to each well, except those in column one of the microtiter panel. The working solution of AMC and each of its components, and comparative agents were delivered to the designated wells in column one. AMC, components, and comparators were serially diluted across the panel. A 50 μl aliquot of bacterial or fungal suspension was then added to each well on the microtiter panel, using a new pipette tip for each aliquot. Panels were incubated at 35° C. for 16-20 h for the E. coli, P. aeruginosa, and S. aureus strains, 20-24 h for the S. pyogenes strain, and 48 h for the C. albicans strain.
(§6) The 10 μl samples were plated on to blood agar and incubated at 35° C. for 24 h (E. coli and P. aeruginosa) or 48 h (S. aureus, S. epidermidis, and S. pyogenes). After incubation, colony counts for each panel well plated were recorded.
(§7) The MIC % is expressed as g/100 ml or ml/100 ml. […] The MBC % is expressed as g/100 ml or ml/100 ml.

S. aureus ATCC 25923 = test: NCCLS broth microdilution MIC and MBC (Example 10); format: cell-based, Staphylococcus aureus; details: Example 10
Protocol: as §2, §3, §4, §5, §6, §7

Hepatitis B virus = details: virus in dried human plasma exposed 10 min at 20 deg C. to 70% isopropanol; 9 months observation; cited from earlier work
[2] = tested on: S. epidermidis ATCC 12228; test: NCCLS broth microdilution MIC and MBC (Example 10); format: cell-based, Staphylococcus epidermidis
Protocol: as §2, §3, §4, §5, §6, §7

[3] = Acute dermal toxicity, rabbit
T. rubrum ATCC 28188 [4] = test: NCCLS broth microdilution MIC and MFC (Example 10); format: cell-based, Trichophyton rubrum; details: Example 10
Protocol: as §2
(§8) Amphotericin B, fluconazole, and Hibiclens were added as comparative agents in the fungal panels.
as §4
(§9) Microtiter panels were created on the day of MIC testing. A 50 μl aliquot of Mueller-Hinton broth (for bacterial strains) or RPMI 1640 (for fungal strains) was delivered to each well, except those in column one of the microtiter panel. The working solution of AMC and each of its components, and comparative agents were delivered to the designated wells in column one. AMC, components, and comparators were serially diluted across the panel. A 50 μl aliquot of bacterial or fungal suspension was then added to each well on the microtiter panel, using a new pipette tip for each aliquot. Panels were incubated at 35° C. for 16-20 h for the E. coli, P. aeruginosa, and S. aureus strains, 20-24 h for the S. pyogenes strain, and 48 h for the C. albicans strain. T. rubrum panels were incubated for 3 to 4 days before MICs were read. […] Fungal MICs (%) were read using an 80% reduction in the growth endpoint relative to the turbidity of the growth control for AMC, its components, and fluconazole. For amphotericin B, the endpoint was read as the complete inhibition of growth.
(§10) MFCs were determined in a similar manner.
(§11) The endpoint for amphotericin B was read as complete inhibition of growth. The MIC % is expressed as g/100 ml or ml/100 ml. […] The MFC % is expressed as g/100 ml or ml/100 ml.

[5] = tested on: Trichophyton rubrum (ATCC 28188); test: Time-Kill test (Example 9); format: cell-based
Protocol: A panel of “challenge microorganisms,” including select bacteria, yeast, and fungi was used to assess the disinfecting properties of test compounds, e.g., AMC (DPT Laboratories). […] The procedure was based on the ASTM procedure entitled, “Standard Test Method for the Assessment of Microbial Activity of Test Materials Using Time-Kill Procedure.”
A single lot of test material was prepared at various concentrations, along with multiple compounds prepared in various concentrations and combinations. These test materials were tested in duplicate against various bacteria, yeast and fungi. To minimize potential buffer interference and to minimize reduction of antimicrobial activity, the volume of the inoculum added to the test material was maintained at, or below, 1% of the total volume of the test. Samples were removed at various contact times. Serial dilutions were performed, and duplicate aliquots were plated. The plates were then incubated, and the average colony forming units (CFU) recovered per milliliter were determined for each contact time. The contact times for the test compounds with S. aureus, E. coli, P. aeruginosa, and C. albicans were 30 sec, 1 min, and 5 min. The contact times for the test compounds with B. subtilis were 1 and 10 min, 1 h, 2 h, 3 h, and 24 h. The contact times for the test compounds with T. rubrum were 30 sec, 1 min and 10 min. The contact temperature was ambient room temperature (20-21° C.).
The fungus, T. rubrum, was inoculated onto Emmon's agar (EA) and incubated at 25-30° C. for 10-15 days. The mycelial mats from mature cultures were removed from the surface of at least 5 plates and macerated with sterile saline (SS) in a sterile glass tissue grinder. The suspension was filtered through sterile glass wool to remove the hyphae.
The density of the conidial suspension was determined by serially diluting the prepared culture in BPDW. Aliquots from selected dilutions were plated on duplicate EA plates. The plates were incubated for 3-5 days at 25-30° C. and then each plate was examined for enumeration.
The suspension was stored at 2-10° C. for 4 weeks before use. On the day of testing, the suspension was adjusted to yield approximately 5.0×10^8 CFU by dilution with BPDW.
Compliant with the ASTM procedure cited above, the challenge microorganism was added to the test material by dispensing 99 ml of the test material into two sterile flasks, each containing a stir bar. The reaction flasks were allowed to equilibrate to the test temperature for at least 10 minutes. The flasks were placed in water baths on stir plates and maintained at the test temperature with stirring. A 1 ml aliquot of the prepared inoculum of the challenge microorganism was added to each flask to begin the contact period. At each contact time, 1 ml aliquot samples were removed and added to tubes containing 9 ml PBDW+. Serial 10-fold dilutions of each sample were then prepared in PBDW dilution blanks. Duplicate aliquots from selected dilutions were plated using the appropriate agar.
Upon completion of all contact periods, all plates were inverted and incubated for the appropriate time and temperature as follows: bacteria and yeast were incubated over 2 nights at 37° C.±2° C., and the fungus was incubated for at least 5 nights at 25-30° C. Following incubation, all plates were removed, the colonies were counted and the CFU recovered per ml at each contact time were calculated.

C. albicans ATCC 10231 [6] = test: NCCLS broth microdilution MIC and MFC (Example 10); format: cell-based, Candida albicans
Protocol: as §2, §8, §4, §9, §10, §11

E. coli ATCC 11229 = test: NCCLS broth microdilution MIC and MBC (Example 10); format: cell-based, Escherichia coli; details: % as g/100 ml or ml/100 ml
Protocol: as §2, §3, §4, §5, §6, §7

[7] = component at 100%; cited from earlier work
[8] = component at 100%; cited from earlier work; remark: listed apart in the source
S. pyogenes ATCC 19615 = test: NCCLS broth microdilution MIC and MBC (Example 10); format: cell-based, Streptococcus pyogenes; details: Example 10; % as g/100 ml or ml/100 ml
Protocol: as §2, §3, §4, §5, §6, §7

[9] = component at 100%; cited from earlier work; remark: listed apart in the source
[10] = Acute inhalation toxicity, rat
T. rubrum ATCC 28188 [11] = test: NCCLS broth microdilution MIC and MFC (Example 11); format: cell-based, Trichophyton rubrum; details: Example 11
Protocol: (§12) Strains of C. albicans (ATCC 10231) and T. rubrum (ATCC 28188) were tested in this study. Strains were removed from frozen stock and subcultured twice on blood agar to ensure that the strains had optimal growth and metabolic status before testing. Strains were tested by NCCLS broth microdilution (M27-A2, 2002) and challenged with AMC solution and its individual components […] ), and isopropanol. Amphotericin B, fluconazole, terbinafine, and Hibiclens were added as comparator compounds. […] Microtiter panels were created on the day of MIC testing. A 50 μl aliquot of RPMI 1640 was delivered to each well except those in column one of the microtiter panel. The working solution of AMC and each of its components, and comparative agents were delivered to the designated wells in column one; AMC, components, and comparators were serially diluted across the panel. A 50 μl aliquot of fungal suspension was then added to each well on the microtiter panel, using a new pipette tip for each aliquot. […] For amphotericin B, the endpoint was read as the complete inhibition of growth. […] MFCs were performed to determine the concentration at which ≧99% of the starting fungal inoculum was killed. […] After incubation, colony counts for each panel well plated were recorded. […] The endpoint for amphotericin B was read as complete inhibition of growth.

C. albicans ATCC 10231 [12] = test: NCCLS broth microdilution MIC and MFC (Example 11); format: cell-based, Candida albicans
Protocol: as §12

[13] = component at 100%; cited from earlier work; remark: listed apart in the source
E. coli (strain 1257) = test: Time-kill test, initial studies (death time); format: cell-based, Escherichia coli
From the text: (§1) Time-kill tests were used to measure the disinfecting property of test compounds, e.g., microbiocidal or sporicidal compositions, using select bacterial challenge microorganisms such as the vegetative forms of, e.g., E. coli (strain 1257) S. aureus (strain 906), and Bacillus cereus (strain 96).

S. aureus (strain 906) = test: Time-kill test, initial studies (death time); format: cell-based, Staphylococcus aureus
From the text: as §1

[14] = tested on: Bacillus cereus (strain 96); test: Time-kill test, initial studies (death time, sporicidal activity); format: cell-based; details: Conc. 5.0 %
[15] = MBC within one doubling dilution of the MIC
[16] = 80% reduction in growth endpoint
[17] = MFC within 1 doubling dilution of the MIC
[18] = Estimated for AMC contained concentrations

C=C1/C(=C/C=C2\CCC[C@]3(C)[C@@H]([C@@H](C)CCC(=O)N4CCCCC4)CC[C@@H]23)C[C@@H](O)C[C@@H]1O [Ecalcidene]
dose with immunological effects, times lower than doses causing toxicity associated with hypercalcemia [1]: 10-100 times

CC(C)O [Isopropanol]
MBC, % (P. aeruginosa ATCC 15442): 12.3% | MIC, % (P. aeruginosa ATCC 15442): 3.1% | MBC, % (S. aureus ATCC 25923; % as g/100 ml or ml/100 ml): 24.6% | MIC, % (S. aureus ATCC 25923; % as g/100 ml or ml/100 ml): 12.3% | bactericidal activity (S. aureus ATCC 25923; [15]): bactericidal activity | infection after intravenous inoculation of treated viral material (Hepatitis B virus): did not show signs of infection | MCB, % ([2]; % as g/100 ml or ml/100 ml): 24.5% | MIC, % ([2]; % as g/100 ml or ml/100 ml): 12.3% | bactericidal activity [2, 15]: bactericidal activity | LD50 ([3]; rabbit, in vivo, topical or ocular): 25600 mg/kg | MIC, % (T. rubrum ATCC 28188 [4]; [16]): 0.2% | MFC, % (T. rubrum ATCC 28188 [4]; 99.9% inhibition of growth): 0.4% | fungicidal activity (T. rubrum ATCC 28188 [4]; [17]): Fungicidal activity was observed | Relative Kill Potency [5]: 0.64 | reduction of T. rubrum count ([5]; Study 509-101, in 30 sec): not effective | 30-Second Log Reduction from Initial T. rubrum CFU Values ([5]; Table 25, first value column): 0.8 Logs | MIC, % (C. albicans ATCC 10231 [6]; [16]): 1.5% | MFC, % (C. albicans ATCC 10231 [6]; 99.9% inhibition of growth): 1.5% | fungicidal activity (C. albicans ATCC 10231 [6]; [17]): Fungal activity | MIC, % (E. coli ATCC 11229): 6.1% | LD50 (Acute oral toxicity, rat; rat, in vivo, po): > 5000 mg/kg | Rat Inhalation LC50 [7]: 72.6 µg/mL | Rabbit Dermal LD50 [8]: 12,800 mg/Kg | MBC, % (S. pyogenes ATCC 19615): 12.3% | MIC, % (S. pyogenes ATCC 19615): 12.3% | Rat Oral LD50 [9]: >5,000 mg/Kg | LC50 ([10]; rat, in vivo, inhaled): 145 µg/mL (≈ 2410 µM) | MFC, % (T. rubrum ATCC 28188 [11]): 3.1% | MIC, % (T. rubrum ATCC 28188 [11]; [16]): 0.2% | fungicidal activity (T. rubrum ATCC 28188 [11]; [17]): did not demonstrate fungicidal activity | MFC, % (C. albicans ATCC 10231 [12]): 1.5% | MIC, % (C. albicans ATCC 10231 [12]; [16]): 0.8% | fungicidal activity (C. albicans ATCC 10231 [12]; [17]): Fungicidal activity

[O-2].[Zn+2] [Zn oxide (100%), Zn oxide]
Rabbit Dermal LD50 [3, 18]: >>100,000 mg/Kg | Rat Oral LD50 (Acute oral toxicity, rat; [18]): >>100,000 mg/Kg | Rat Inhalation LC50 [7]: >0.005 µg/mL | Rat Oral LD50 (*Mouse data) [13]: 7,950 mg/Kg | Rabbit Dermal LD50 [8]: >2,000 mg/Kg | Rat Inhalation LC50 [10, 18]: >4.2 µg/mL

Monoglycinatecopper chloride complex
Death time of test-microorganisms (min) E. coli (E. coli (strain 1257); Conc. 0.1 %): >30 min | Death time of test-microorganisms (min) E. coli (E. coli (strain 1257); Conc. 0.2 %): 30 min | Death time of test-microorganisms (min) E. coli (E. coli (strain 1257); Conc. 0.5 %): 15 min | Death time of test-microorganisms (min) S. aureus (S. aureus (strain 906); Conc. 0.1 %): >30 min | Death time of test-microorganisms (min) S. aureus (S. aureus (strain 906); Conc. 0.2 %): >30 min | Death time of test-microorganisms (min) S. aureus (S. aureus (strain 906); Conc. 0.5 %): >30 min | Death time of test-microorganisms (min) S. aureus (S. aureus (strain 906); Conc. 5.0 %): >30 min | Death time of test-microorganisms (min) B. cereus [14]: >360 min

— patent publication US20080057136A1, “Disinfecting Composition and Methods of Making and Using Same” (priority 2003, published 2008)
